Experimental data as given in US20250289844A1, “TREATMENT OF GM1 DEFICIENCIES” (Seneb BioSciences, Inc., priority 2022, published 2025).

Key:
[1] = vendor or literature description; cited from earlier work
[2] = Formulation / solubility of GM1 in water or buffer; format: physicochemical; settings: 50 to 500 mg/mL
Protocol: (§1) FIG. 26. Solubility of GM1 of the Invention and Pharmacokinetics of different formulations of GM1 in Sprague Dawley after subcutaneous administration at a dose of 30 mg/Kg. GM1 was formulated at different GM1 concentrations from 50 mg/mL to 500 mg/mL in water or buffer with or without excipients and cosolvents.
(§2) Example 4. Formulation of GM1. Water or buffer solutions were added to GM1 and the suspension stirred until the GM1 was completely dissolved. […] Concentrations of solutions of GM1 prepared by this method included 50 mg/mL, 100 mg/mL, 200 mg/mL, 300 mg/mL, 400 mg/mL and 500 mg/mL. Formulations containing phosphate buffer 0-15 mM (pH 7.0-7.4) were also used and various excipients added including arginine (60-100 mM) and sodium chloride (0-137 mM) (FIG. 26).

[3] = test system: Huntington's disease YAC128 mice; experiment: Motor function (rotarod, narrow beam) in Huntington's disease YAC128 mice; format: in vivo; settings: Alzet pump, intracerebral ventricular injection
Protocol: FIG. 25. Improvement of motor function in Huntington's disease YAC128 mice after ganglioside replacement therapy using ganglioside compositions of the invention. Mice were administered GM1 using an Alzet pump and intracerebral ventricular injection. FIG. 25A. […] FIG. 25B. […] WT mice treated with GM1 (□), solid line; WT mice treated with cerebral spinal fluid (▪) hashed line; YAC128 Huntington's disease mice treated with cerebral spinal fluid (⋄) hashed line; YAC128 Huntington's disease mice treated with GM1 (♦) solid line.
In still other embodiments, gangliosides and other compounds of the invention can be used as a therapeutic to treat Huntington's disease caused by a deficiency of one or more ganglioside species, e.g., GM3, GM2 and/or GM1, FIGS. 20 and 24 (Di Pardo (2016) Front. Neurosci. 10:457). In some embodiments, the ganglioside deficiency is caused by reduced or missing enzyme activity and/or expression selected from GM3 synthase (ST3Gal5), GM2 synthase (B4GalNT1) and GM1 synthase (B3GalT4), FIG. 24 (Desplats (2007) Neurobiol. Dis. 27(3): 265-277). In another preferred embodiment, the ganglioside deficiency encompasses reduced amounts or missing ganglioside selected from GM3, GM2 and/or GM1. […]

[4] = Pharmacokinetics of formulated GM1 after subcutaneous administration; format: in vivo; settings: Sprague Dawley rats, 30 mg/Kg, all GM1 concentrations tested
Protocol: as §1
Example 5. Pharmacokinetics of Formulated GM1. The formulated GM1 was administered, subcutaneously, to Sprague Dawley rats and the pharmacokinetics determined (FIG. 26). The plasma GM1 levels returned to normal after 72 hours for all GM1 concentrations tested.

[5] = test system: GM2 synthase deficient mice; experiment: Minimum effective dose and motor/cognitive function, ganglioside replacement therapy in GM2 synthase deficient mice; format: in vivo
Protocol: FIG. 14. Motor and Cognitive function of GM2 synthase deficient mice (heterozygotes; HT and homozygotes; KO; 200-300 day old) treated with either saline (Sal) or GM1 (d18:1, C18:0) (30 mg/Kg, intraperitoneal, once daily) and compared to age matched controlled wild type mice (WT). FIG. 14A. Mouse grip strength, and FIG. 14B. Mouse cognitive function (T-maze), were assessed after 3 weeks of dosing.
FIG. 27. Minimum effective dose. Motor function of GM2 synthase deficient mice (heterozygotes; HT, 200-300 day old) treated with GM1(d18:1, C18:0) (intraperitoneal, once daily). FIG. 27A. Mouse grip strength, FIG. 27B. Adhesive removal, and FIG. 27C. Pole climbing.
(§3) The minimum effective dose of GM1 of the invention was 5 mg/kg (IP, once daily) when administered as ganglioside replacement therapy in ganglioside deficient mice FIG. 27. […] The predicted therapeutic human dose based on allometric scaling of all animal and human data is predicted to be 2-10 mg/Kg administered daily as a parenteral (e.g., subcutaneous, intraperitoneal, intramuscular). In an exemplary embodiment, the therapeutically effective amount is from about 2 to about 10 mg per kg of body weight per dosage. In an exemplary embodiment, the dose of the GM1 formulation is administered parenterally once daily.

[6] = Stability of GM1 formulations at room temperature; format: physicochemical; settings: water or phosphate buffer 0-15 mM pH 7.0-7.4, arginine 60-100 mM, sodium chloride 0-137 mM
Protocol: as §2

[7] = test system: GM3 synthase deficient mice; experiment: Motor and cognitive function, ganglioside replacement therapy in GM3 synthase deficient mice; format: in vivo; settings: 5 mg/kg IP once daily; GM3 synthase deficient mice (knock-outs and heterozygotes)
Protocol: FIG. 15. Motor and Cognitive function of GM3 synthase deficient mice (heterozygotes; HT and homozygotes; KO; 7-10 months old) treated with either saline (Sal) or GM1 (d18:1, C18:0) (30 mg/Kg, intraperitoneal, once daily for 3 weeks) and compared to age matched controlled wild type mice (WT). FIG. 15A. Grip Duration, FIG. 15B. Beam Transversal, and FIG. 15C. Short-term memory impairment (T-maze).
as §3

CCCCCCCCCCCCC/C=C/C(O)C(CO[C@@H]1O[C@H](CO)[C@@H](O[C@@H]2O[C@H](CO)[C@H](O[C@@H]3O[C@H](CO)[C@H](O)[C@H](O[C@@H]4O[C@H](CO)[C@H](O)[C@H](O)[C@H]4O)[C@H]3NC(C)=O)[C@H](O[C@]3(C(=O)O)C[C@H](O)[C@@H](NC(C)=O)[C@@H](C(O)C(O)CO)O3)[C@H]2O)[C@H](O)[C@H]1O)NC(=O)CCCCCCCCCCCCCCCCC (stereo partly drawn) [GM1, GM1 (d18:1/C18:0)]
solubility in water [1]: effectively no solubility in water | appearance of solution [2]: clear, colorless and non-opaque solution | rotarod motor function ([3]; FIG. 25A): Improved rotarod motor function | narrow beam motor function ([3]; FIG. 25B): Improved narrow beam motor function | time after which plasma GM1 levels returned to normal [4]: 72 h | motor and cognitive deficits ([5]; 5 mg/kg IP once daily, GM2 synthase deficient mice (knock-outs and heterozygotes)): reversing motor and cognitive deficits | minimum effective dose ([5]; IP, once daily, ganglioside replacement therapy in ganglioside deficient mice (FIG. 27: grip strength, adhesive removal, pole climbing)): 5 mg/kg | stability of formulations [6]: stable at room temperature for months | motor and cognitive deficits [7]: reversing motor and cognitive deficits
